Data published in US9284330B2 (priority 2011, dated 2016).
pIC50: −log10 of the molar value. Like-named read-outs stand apart in the source and are kept apart here.

Tests used:
L-type Ca2+ channel [1] = assay: Blocking of L-type Ca2+ channel by high content screening analyzer, KCl-induced calcium ion influx in SH-SY5Y cells (Fluo-4-AM)
acetylcholinesterase = acetylcholinesterase (Electrophorus electricus (Electric eel) (Gymnotus electricus), UniProt O42275); assay: biochemical
[2] = tested on: primary cortical neuron cells; details: 24 h incubation
L-type Ca2+ channel [3] = assay: Blocking of L-type Ca2+ channel by patch clamp, calcium current in rat dorsal root ganglion cells; assay type: cell-based; details: whole cell patch clamp

acetylcholinesterase, sequence (O42275 whole entry, looked up): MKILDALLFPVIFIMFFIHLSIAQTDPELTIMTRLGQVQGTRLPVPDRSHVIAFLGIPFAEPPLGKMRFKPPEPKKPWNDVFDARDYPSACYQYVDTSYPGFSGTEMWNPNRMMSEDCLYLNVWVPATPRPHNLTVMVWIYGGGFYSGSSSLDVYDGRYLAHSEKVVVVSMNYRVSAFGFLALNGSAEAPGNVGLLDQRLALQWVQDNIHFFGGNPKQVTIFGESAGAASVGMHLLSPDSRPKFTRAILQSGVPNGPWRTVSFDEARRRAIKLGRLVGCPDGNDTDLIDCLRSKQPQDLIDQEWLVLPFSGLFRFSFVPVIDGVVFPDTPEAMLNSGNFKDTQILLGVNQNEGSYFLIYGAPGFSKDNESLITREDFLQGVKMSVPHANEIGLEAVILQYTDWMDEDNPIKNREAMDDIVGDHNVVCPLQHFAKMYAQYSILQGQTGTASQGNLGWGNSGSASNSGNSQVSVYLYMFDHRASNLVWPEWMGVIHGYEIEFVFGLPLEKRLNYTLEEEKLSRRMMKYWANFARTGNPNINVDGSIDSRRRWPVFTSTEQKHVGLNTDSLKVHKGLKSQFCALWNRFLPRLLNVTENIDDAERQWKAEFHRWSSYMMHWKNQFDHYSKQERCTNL

| Structure (SMILES) | Inhibition rate of KCl-induced calcium ion influx (L-type Ca2+ channel [1]; 10 μM compound) [%] | Inhibition rate of KCl-induced calcium ion influx (L-type Ca2+ channel [1]; 50 μM compound) [%] | pIC50 (acetylcholinesterase) | other results |
| --- | --- | --- | --- | --- |
| CCOC(=O)C1=C(C)Nc2nc3c(c(N)c2C1c1ccc(C(F)(F)F)cc1)CC(C)CC3 (stereo not drawn) [Compound S2, 5-amino-2,7-dimethyl-4-(4-trifluoromethylphenyl)-1,4,6,7,8,9-hexahydrobenzo[b][1,8]naphthyridine-3-carboxylic acid ethyl ester] | 38.79 | 94.01 | 6.25 |  |
| CCOC(=O)C1=C(C)Nc2nc3c(c(N)c2C1c1cccc(C(F)(F)F)c1)CC(C)(C)CC3 (stereo not drawn) [Compound S4, 5-amino-4-(3-trifluoromethylphenyl)-2,7,7-trimethyl-1,4,6,7,8,9-hexahydrobenzo[b][1,8]naphthyridine-3-carboxylic acid ethyl ester] | 64.82 | 85.17 | 5.98 |  |
| C=CCOC(=O)C1=C(C)Nc2nc3c(c(N)c2C1c1cccc([N+](=O)[O-])c1)CC(C)(C)CC3 (stereo not drawn) [Compound S5, 5-amino-4-(3-nitrophenyl)-2,7,7-trimallyl1,4,6,7,8,9-hexahydrobenzo[b][1,8]naphthyr idine-3-carboxylic acid allyl ester] | 14.40 | 62.43 | 6.11 |  |
| COC(=O)C1=C(C)Nc2nc3c(c(N)c2C1c1ccccc1)CC(C)(C)CC3 (stereo not drawn) [Compound S7, 5-amino-4-phenyl-2,7,7-trimethyl-1,4,6,7,8,9-hexahydrobenzo[b][1,8]naphthyridine-3-carboxylic acid methyl ester] | 1.01 | 72.98 | 5.86 |  |
| CC1=C(C(=O)OC2CCC2)C(c2ccccc2F)c2c(nc3c(c2N)CC(C)(C)CC3)N1 (stereo not drawn) [Compound S9, 5-amino-4-(2-fluorophenyl)-2,7,7-trimethyl-1,4,6,7,8,9-hexahydrobenzo[b][1,8]napht hyridine-3-carboxylic acid cyclobutyl ester] | 5.22 | 85.01 | 6.04 |  |
| COCCOC(=O)C1=C(C)Nc2nc3c(c(N)c2C1c1ccccc1Cl)CC(C)(C)CC3 (stereo not drawn) [Compound S10, 5-amino-4-(2-chlorphenyl)-2,7,7-trimethyl-1,4,6,7,8,9-hexahydrobenzo[b][1,8]naphth yridine-3-carboxylic acid methoxylethyl ester] | 49.97 | 83.29 | 6.01 | Relative neuron activity (average) ([2]; 0.01 μM): 120.7%; Relative neuron activity (average) ([2]; 0.1 μM): 96.3%; Relative neuron activity (average) ([2]; 1 μM): 70.3% |
| CC1=C(C(=O)OCC2CC2)C(c2ccccc2Cl)c2c(nc3c(c2N)CC(C)(C)CC3)N1 (stereo not drawn) [Compound S11, 5-amino-4-(2-chlorphenyl)-2,7,7-trimethyl-1,4,6,7,8,9-hexahydrobenzo[b][1,8]naphth yridine-3-carboxylic acid cyclopropylmethyl ester] | 54.69 | 75.06 |  |  |
| COC(=O)C1=C(C)Nc2nc3c(c(N)c2C1c1ccccc1)CN(C)CC3 (stereo not drawn) [Compound S12, 5-amino-2,7-dimethyl-4-phenyl-1,4,6,7,8,9-hexahydropyrido[2,3-b][1,6]naphthyridine-3-carboxylic acid methyl ester] | 34.59 | 52.61 |  |  |
| COC(=O)C1=C(C)Nc2nc3c(c(N)c2C1c1cccc([N+](=O)[O-])c1)CCC(C)=C3 (stereo not drawn) [Compound S18, 5-amino-2,8-dimethyl-4-(3-nitrophenyl)-1,4,6,7-tetrahydrobenzo[b][1,8]naphthyridine-3-carboxylic acid methyl ester] |  |  | 6.30 |  |
| CCOC(=O)C1=C(C)Nc2nc3c(c(N)c2C1c1cccc([N+](=O)[O-])c1)CC(F)(F)CC3 (stereo not drawn) [Compound S19, 5-amino-7,7-difluoro-2-methyl-4-(3-nitrophenyl)-1,4,6,7,8,9-hexahydrobenzo[b][1,8]naphthyridine-3-carboxylic acid ethyl ester] |  |  | 6.48 | Inhibition rate of L-type Ca2+ channel current (L-type Ca2+ channel [3]; 100 nmol/L compound): 4.12%; Inhibition rate of L-type Ca2+ channel current (L-type Ca2+ channel [3]; 1000 nmol/L compound): 26.29% |
| CCOC(=O)C1=C(C)Nc2nc3c(c(N)c2C1c1cccc([N+](=O)[O-])c1)CC(Cl)(Cl)CC3 (stereo not drawn) [Compound S20, 5-amino-7,7-dichloro-2-methyl-4-(3-nitrophenyl)-1,4,6,7,8,9-hexahydrobenzo[b][1,8]naphthyridine-3-carboxylic acid ethyl ester] | 46.88 | 99.27 |  | Relative neuron activity (average) ([2]; 0.01 μM): 103.9%; Relative neuron activity (average) ([2]; 0.1 μM): 98.5%; Relative neuron activity (average) ([2]; 1 μM): 47.5% |
| CCC1=C(C(=O)OC)C(c2cccc([N+](=O)[O-])c2)c2c(nc3c(c2N)CC(C)(C)CC3)N1 (stereo not drawn) [Compound S25, 5-amino-7,7-dimethyl-4-(3-nitrophenyl)-2-ethyl-1,4,6,7,8,9-hexahydrobenzo[b][1,8]n aphthyridine-3-carboxylic acid methyl ester] | 1.02 | 63.52 | 6.07 |  |
| CC1=C(C(=O)OC(C)C)C(c2cncnc2)c2c(nc3c(c2N)CC(C)(C)CC3)N1 (stereo not drawn) [Compound S26, 5-amino-2,7,7-trimethyl-4-(pyrimidin-5-yl)-1,4,6,7,8,9-hexahydrobenzo[b][1,8]napht hyridine-3-carboxylic acid isopropyl ester] | 30.18 | 41.41 |  |  |
| CCOC(=O)C1=C(C)Nc2nc3c(c(N)c2C1c1ccccc1OC)CC(C)CC3 (stereo not drawn) [Compound S28, 5-amino-4-(2-methoxylphenyl)-2,7-dimethyl-1,4,6,7,8,9-hexahydrobenzo[b][1,8]naph thyridine-3-carboxylic acid ethyl ester] |  |  | 6.87 |  |
| COC(=O)C1=C(C)Nc2nc3c(c(N)c2C1c1cccc([N+](=O)[O-])c1)CC(C)(C)CC3 (stereo not drawn) [Compound S30, 5-amino-2,7,7-trimethyl-4-(3-nitrophenyl)-1,4,6,7,8,9-hexahydrobenzo[b][1,8]naphth yridine-3-carboxylic acid methyl ester] | 29.44 | 80.73 | 5.22 |  |
| CCOC(=O)C1=C(C)Nc2nc3c(c(N)c2C1c1cccc([N+](=O)[O-])c1)CC(C)(C)CC3 (stereo not drawn) [Compound S31, 5-amino-2,7,7-trimethyl-4-(3-nitrophenyl)-1,4,6,7,8,9-hexahydrobenzo[b][1,8]naphth yridine-3-carboxylic acid ethyl ester] | 19.10 | 93.34 | 5.52 |  |
| CC1=C(C(=O)OC(C)C)C(c2cccc(Cl)c2)c2c(nc3c(c2N)CC(C)(C)CC3)N1 (stereo not drawn) [Compound S33, 5-amino-2,7,7-trimethyl-4-(3-chlorphenyl)-1,4,6,7,8,9-hexahydrobenzo[b][1,8]naphth yridine-3-carboxylic acid isopropyl ester] |  |  | 5.74 |  |
| CCOC(=O)C1=C(C)Nc2nc3c(c(N)c2C1c1cccc(F)c1)CC(C)(C)CC3 (stereo not drawn) [Compound S34, 5-amino-2,7,7-trimethyl-4-(3-fluorophenyl)-1,4,6,7,8,9-hexahydrobenzo[b][1,8]napht hyridine-3-carboxylic acid ethyl ester] | 39.53 | 88.96 | 5.75 |  |
| C=CCOC(=O)C1=C(C)Nc2nc3c(c(N)c2C1c1cccc(F)c1)CC(C)(C)CC3 (stereo not drawn) [Compound S35, 5-amino-4-(3-fluorophenyl)-2,7,7-trimethyl-1,4,6,7,8,9-hexahydrobenzo[b][1,8]napht hyridine-3-carboxylic acid allyl ester] |  |  | 5.75 |  |
| C#CCOC(=O)C1=C(C)Nc2nc3c(c(N)c2C1c1cccc(F)c1)CC(C)(C)CC3 (stereo not drawn) [Compound S36, 5-amino-2,7,7-trimethyl-4-(3-fluorophenyl)-1,4,6,7,8,9-hexahydrobenzo[b][1,8]napht hyridine-3-carboxylic acid propargyl ester] |  |  | 5.71 |  |
| C#CCOC(=O)C1=C(C)Nc2nc3c(c(N)c2C1c1cccc([N+](=O)[O-])c1)CC(C)(C)CC3 (stereo not drawn) [Compound S37, 5-amino-4-(3-nitrophenyl)-2,7,7-trimethyl-1,4,6,7,8,9-hexahydrobenzo[b][1,8]naphth yridine-3-carboxylic acid propargyl ester] |  |  | 5.73 |  |
| CCOC(=O)C1=C(C)N(C)c2nc3c(c(N)c2C1c1ccccc1Cl)CC(C)(C)CC3 (stereo not drawn) [Compound S38, 5-amino-4-(2-chlorphenyl)-1,2,7,7-tetramethyl-1,4,6,7,8,9-hexahydrobenzo[b][1, 8]na phthyridine-3-carboxylic acid ethyl ester] | 17.97 | 51.19 |  |  |
| COC(=O)C1=C(C)NC(C)=C(C(=O)OC)C1c1ccccc1[N+](=O)[O-] [Nifedipine, reference compound] |  |  |  | Inhibition rate of L-type Ca2+ channel current (L-type Ca2+ channel [3]; 100 nmol/L compound): 22.48%; Inhibition rate of L-type Ca2+ channel current (L-type Ca2+ channel [3]; 1000 nmol/L compound): 36.15% |
